PMC6915683, “Characterization of Maltase and Sucrase Inhibitory Constituents from Rhodiola crenulata” (Foods, 2019)
“Also recorded” adds a separate entry of the source. Like-named read-outs stand apart in the source and are kept apart here.

Key:
[1] = biological target: maltase; parameters: method as in PMID 15826043; settings: isolated from Siraitia grosvenori; read-out: IC50 maltase inhibitory activity; cited from earlier work
[2] = biological target: T1, maltase (Saccharomyces cerevisiae, UniProt P53341); assay: Maltase inhibition kinetics (Lineweaver–Burk and Dixon plots); format: biochemical; settings: for Ki’ maltase (uncompetitive inhibition constant): binding to maltase–maltose complex; for mode of inhibition toward maltase: Lineweaver–Burk / Dixon plots
T1 construct: purchased Sigma Chemical Co. (St. Louis, MO, USA)
Description: (§1) Maltase activity was characterized using the methods outlined by Adisakwattana et al. with slight modifications. Maltose and maltase derived from Saccharomyces cerevisiae (S. cerevisiae) were obtained from Sigma Chemical Co. (St. Louis, MO, USA). A reaction mixture was formulated from 30 μL of maltose (86.3 mM) with 20 μL of maltase (0.33 units/mL) and 50 μL of phosphate buffer (100 mM, pH 7.0). The mixture was incubated at 37 °C for 10 min and then at 100 °C for a further 10 min to stop the reaction. The glucose concentrations released by the reaction mixture were determined via the glucose oxidase method (glucose assay kit, Sigma Chemical Co., St. Louis, MO, USA) using a VersaMax microplate reader (Molecular Devices Corporation, Sunnyvale, CA, USA) at an absorbance wavelength of 540 nm.
Kinetics assays were conducted using substrates of various concentrations with and without inhibitors. Maltose was used as a substrate for maltase, where the initial velocity was expressed as the rate of absorbance at 540 nm per min. Sucrose was used as a substrate for sucrase, where the initial velocity was expressed as the rate of absorbance at 540 nm per 18 min. Dixon plot analysis was used to determine the competitive inhibition constant (Ki) and uncompetitive inhibition constant (Ki’). Ki was used as the equilibrium constant for the inhibition of binding to maltase and sucrase, whereas Ki’ was used as the equilibrium constant for the inhibition of binding to maltase–maltose and sucrase–sucrose complexes. The Ki and Ki’ values of the maltase inhibitors were derived from Dixon plots in accordance with the methods described by Cornish-Bowden.

[3] = tested on: α-glucosidase; parameters: method as in doi:10.1016/j.foodres.2014.01.029; settings: cited from earlier work; for Ki / Ki’ α-glucosidase: previous results
[4] = biological target: sucrase; assay: Sucrase inhibition kinetics (Lineweaver–Burk and Dixon plots); format: biochemical, Leuconostoc mesenteroides; settings: for Ki / Ki’ sucrase (uncompetitive inhibition constant): Dixon plot; for Ki / mode of inhibition toward sucrase: sucrose substrate; for Ki: binding to sucrase, read-out: Ki sucrase (competitive inhibition constant); for Ki’ sucrase (uncompetitive inhibition constant): binding to sucrase–sucrose complex; for mode of inhibition toward sucrase: Lineweaver–Burk / Dixon plots
Description: Estimates of sucrase activity were obtained using the method outlined by […] et al. with slight modifications. Sucrose and sucrase derived from Leuconostoc mesenteroides were obtained from Sigma Chemical Co. (St. Louis, MO, USA). […] The mixtures were incubated at 37 °C for 60 min and then at 100 °C for a further 10 min to stop the reaction. The glucose concentrations released from the reaction mixtures were estimated via the glucose oxidase method (glucose assay kit, Sigma Chemical Co., St. Louis, MO, USA) using a VersaMax microplate reader (Molecular Devices Corporation, Sunnyvale, CA, USA) at an absorbance wavelength of 540 nm. […] Kinetics assays were conducted using substrates of various concentrations with and without inhibitors. Maltose was used as a substrate for maltase, where the initial velocity was expressed as the rate of absorbance at 540 nm per min. Sucrose was used as a substrate for sucrase, where the initial velocity was expressed as the rate of absorbance at 540 nm per 18 min. Dixon plot analysis was used to determine the competitive inhibition constant (Ki) and uncompetitive inhibition constant (Ki'). Ki was used as the equilibrium constant for the inhibition of binding to maltase and sucrase, whereas Ki' was used as the equilibrium constant for the inhibition of binding to maltase-maltose and sucrase-sucrose complexes.

[5] = biological target: sucrase; assay: Sucrase inhibitory activity assay (sucrose substrate, glucose oxidase method); format: biochemical, Leuconostoc mesenteroides; settings: for IC50: L. mesenteroides sucrase, sucrose substrate, pH 7.0, 37 °C, mean ± SD; for sucrase inhibition: at a concentration of 20 µM
Description: Estimates of sucrase activity were obtained using the method outlined by […] et al. with slight modifications. Sucrose and sucrase derived from Leuconostoc mesenteroides were obtained from Sigma Chemical Co. (St. Louis, MO, USA). […] The mixtures were incubated at 37 °C for 60 min and then at 100 °C for a further 10 min to stop the reaction. The glucose concentrations released from the reaction mixtures were estimated via the glucose oxidase method (glucose assay kit, Sigma Chemical Co., St. Louis, MO, USA) using a VersaMax microplate reader (Molecular Devices Corporation, Sunnyvale, CA, USA) at an absorbance wavelength of 540 nm. […] All samples were assessed in terms of sucrase inhibitory activity under a range of concentrations (0-50 μM).

[6] = biological target: T1, maltase; assay: Maltase inhibitory activity assay (maltose substrate, glucose oxidase method); format: biochemical; settings: for inhibition at 10 µM: read-out: maltase inhibition
Description: as §1
All of the samples were assessed in terms of maltase inhibitory activity under a range of concentrations (0–30 μM). Maltase inhibitory activity was evaluated by dissolving the samples directly in phosphate buffer solution (100 mM, pH 7.0). Note that each sample was assayed in triplicate. Inhibitory activity was estimated in terms of IC50 values based on percent inhibition, as follows:percent inhibition (%) = [(Awithout sample − Awith sample)] × 100%/Awithout sample(1)

[7] = parameters: method as in PMID 18756586; settings: daily consumption for three years, compared to control group not consuming acarbose; cited from earlier work
[8] = biological target: rat sucrase; parameters: method as in PMID 28914528; settings: cited from earlier work
[9] = biological target: rat maltase; parameters: method as in PMID 28914528; settings: cited from earlier work
[10] = tested on: sucrase; parameters: method as in PMID 21765605; settings: kinetics analysis; cited from earlier work
[11] = tested on: sucrase; parameters: method as in PMID 15895684; settings: sucrose substrate, cited from earlier work
[12] = biological target: rat maltase; parameters: method as in doi:10.1016/j.foodchem.2010.03.088; settings: read-out: IC50 against rat maltase; cited from earlier work
[13] = tested on: rat sucrose; parameters: method as in doi:10.1016/j.foodchem.2010.03.088; settings: read-out: IC50 against rat sucrose; cited from earlier work
[14] = tested on: maltase; parameters: method as in PMID 32218677; settings: maltose substrate, cited from earlier work
[15] = tested on: sucrase; parameters: method as in PMID 19772492; settings: cited from earlier work
[16] = tested on: maltase; parameters: method as in PMID 19772492; settings: kinetic analysis; cited from earlier work
[17] = tested on: sucrose in rats; parameters: method as in PMID 20629879; settings: read-out: IC50 against sucrose in rats; cited from earlier work
[18] = S. cerevisiae maltase, maltose substrate, pH 7.0, 37 °C, mean ± SD, triplicate, read-out: IC50 Maltase

T1 sequence (P53341 whole entry): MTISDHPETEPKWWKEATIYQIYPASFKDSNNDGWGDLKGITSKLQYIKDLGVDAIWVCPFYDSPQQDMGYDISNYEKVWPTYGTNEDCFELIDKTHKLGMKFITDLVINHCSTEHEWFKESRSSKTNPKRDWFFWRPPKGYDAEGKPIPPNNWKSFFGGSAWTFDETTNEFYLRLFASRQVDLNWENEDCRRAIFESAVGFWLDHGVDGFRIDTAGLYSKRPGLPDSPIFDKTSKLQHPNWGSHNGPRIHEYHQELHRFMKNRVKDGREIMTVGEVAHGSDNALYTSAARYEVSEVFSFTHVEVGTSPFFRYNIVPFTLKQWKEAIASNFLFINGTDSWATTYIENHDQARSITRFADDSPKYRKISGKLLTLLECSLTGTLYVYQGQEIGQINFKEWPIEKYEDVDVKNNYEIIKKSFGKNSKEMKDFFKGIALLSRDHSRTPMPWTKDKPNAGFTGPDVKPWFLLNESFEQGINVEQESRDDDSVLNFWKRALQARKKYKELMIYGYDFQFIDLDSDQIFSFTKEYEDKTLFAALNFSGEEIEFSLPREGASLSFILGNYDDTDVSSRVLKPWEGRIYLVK

C[C@H](CC[C@@H](O[C@@H]1O[C@H](CO[C@@H]2O[C@H](CO)[C@@H](O)[C@H](O)[C@H]2O)[C@@H](O)[C@H](O)[C@H]1O[C@@H]1O[C@H](CO)[C@@H](O)[C@H](O)[C@H]1O)C(C)(C)O)[C@H]1CC[C@@]2(C)[C@@H]3CC=C4[C@@H](CC[C@H](O[C@@H]5O[C@H](CO)[C@@H](O)[C@H](O)[C@H]5O)C4(C)C)[C@]3(C)[C@H](O)C[C@]12C [siamenoside I]
IC50 [1]: 10000 µM

O=C(O[C@@H]1Cc2c(O)cc(O)cc2O[C@@H]1c1ccc(O)c(O)c1)c1cc(O)c(O)c(O)c1 [ECG, epicatechin gallate]
Ki [2]: 3.14 ± 0.04 µM
Ki’ maltase (uncompetitive inhibition constant) ([2]; Dixon plot): 6.38 ± 0.04 µM
mode of inhibition toward maltase ([2]; maltose substrate): mixed-type inhibition; also recorded: mixed-competitive inhibitors
mode of inhibition of α-glucosidase [3]: mixed-competitive inhibitors
Ki [3]: 0.21 ± 0.04 µM
Ki’ α-glucosidase [3]: 2.34 ± 0.06 µM
Ki [4]: 8.58 ± 0.08 µM
Ki’ sucrase (uncompetitive inhibition constant) [4]: 15.74 ± 0.32 µM
mode of inhibition toward sucrase [4]: mixed-type inhibition; also recorded: mixed-competitive inhibitors
IC50 [5]: 18.3 ± 3.99 µM
sucrase inhibition [5]: 56.1%
IC50 [6]: 3.64 ± 2.99 µM
inhibition at 10 µM [6]: 87.7%

C[C@H]1O[C@H](O[C@H]2[C@H](O)[C@@H](O)[C@@H](O[C@H]3[C@H](O)[C@@H](O)C(O)O[C@@H]3CO)O[C@@H]2CO)[C@H](O)[C@@H](O)[C@@H]1N[C@H]1C=C(CO)[C@@H](O)[C@H](O)[C@H]1O (stereo partly shown) [acarbose]
reduction of the risk of developing type 2 diabetes [7]: 6%
IC50 [8]: 12.3 ± 0.6 µM
IC50 [9]: 0.42 ± 0.02 µM

C[C@@H]1O[C@@H](OC[C@H]2O[C@@H](Oc3cc4c(O)cc(O)cc4[o+]c3-c3ccc(O)c(O)c3)[C@H](O)[C@@H](O)[C@@H]2O)[C@H](O)[C@H](O)[C@H]1O [cyanidin-3-rutinoside]
mode of inhibition of sucrase [10]: mixed-type manner

C[C@H](CC[C@@H](O[C@@H]1O[C@H](CO)[C@@H](O)[C@H](O)[C@H]1O[C@@H]1O[C@H](CO)[C@@H](O)[C@H](O)[C@H]1O)C(C)(C)O)[C@H]1CC[C@@]2(C)[C@H]3CC=C4[C@@H](CC[C@H](O[C@@H]5O[C@H](CO[C@@H]6O[C@H](CO)[C@@H](O)[C@H](O)[C@H]6O)[C@@H](O)[C@H](O)[C@H]5O)C4(C)C)[C@]3(C)[C@H](O)C[C@]12C [mogroside IV]
IC50 [1]: 12000 µM

Oc1cc(O)c2c(c1)O[C@H](c1ccc(O)c(O)c1)[C@H](O)C2 [EC, epicatechin]
Ki’ maltase (uncompetitive inhibition constant) ([2]; Dixon plot): 18.88 ± 0.22 µM
mode of inhibition toward maltase ([2]; maltose substrate): mixed-type inhibition; also recorded: mixed-competitive inhibitors
Ki ([2]; read-out: Ki maltase (competitive inhibition constant)): 7.02 ± 0.26 µM
Ki [4]: 13.7 ± 0.15 µM
Ki’ sucrase (uncompetitive inhibition constant) [4]: 21.36 ± 0.30 µM
mode of inhibition toward sucrase [4]: mixed-type inhibition; also recorded: mixed-competitive inhibitors
IC50 [5]: 18.9 ± 3.66 µM
sucrase inhibition [5]: 51.4%
IC50 [6, 18]: 6.25 ± 1.84 µM
inhibition at 10 µM [6]: 66.3%

C[C@H](CC[C@@H](O[C@@H]1O[C@H](CO[C@@H]2O[C@H](CO)[C@@H](O)[C@H](O)[C@H]2O)[C@@H](O)[C@H](O)[C@H]1O)C(C)(C)O)[C@H]1CC[C@@]2(C)[C@@H]3CC=C4[C@@H](CC[C@H](O[C@@H]5O[C@H](CO)[C@@H](O)[C@H](O)[C@H]5O)C4(C)C)[C@]3(C)[C@H](O)C[C@]12C [mogroside III]
IC50 [1]: 1600 µM

O=C(OC1Cc2c(O)cc(O)c(C3c4c(O)cc(O)cc4OC(c4ccc(O)c(O)c4)C3O)c2OC1c1ccc(O)c(O)c1)c1cc(O)c(O)c(O)c1 (stereo not drawn) [B2-3’-O-gallate, epicatechin-(4β,8)-epicatechingallate]
Ki ([2]; Dixon plot, maltose substrate, binding to maltase, read-out: Ki maltase (competitive inhibition constant)): 1.99 ± 0.02 µM
Ki’ maltase (uncompetitive inhibition constant) ([2]; Dixon plot): 3.73 ± 0.08 µM
mode of inhibition toward maltase ([2]; maltose substrate): mixed-type inhibition; also recorded: mixed-competitive inhibitors
mode of inhibition of α-glucosidase [3]: mixed-competitive inhibitors
Ki [3]: 0.3 ± 0.03 µM
Ki’ α-glucosidase [3]: 1.42 ± 0.01 µM
Ki [4]: 6.05 ± 0.04 µM
mode of inhibition toward sucrase [4]: mixed-type inhibition; also recorded: mixed-competitive inhibitors
IC50 [5]: 6.91 ± 3.41 µM
sucrase inhibition [5]: 84.6%
IC50 [6, 18]: 1.73 ± 1.37 µM
inhibition at 10 µM [6]: 90.7%

N[C@H]1C=C(CO)[C@@H](O)[C@H](O)[C@H]1O [valienamine]
mode of inhibition of sucrase ([11]; Lineweaver–Burk plot): competitive inhibitor
Ki ([11]; read-out: Ki sucrase calculated from a Dixon plot): 0.77 µM

O=c1c(O)c(-c2ccc(O)c(O)c2)oc2cc(O)cc(O)c12 [quercetin, reference compound]
Ki’ maltase (uncompetitive inhibition constant) ([2]; Dixon plot): 14.97 ± 0.75 µM
mode of inhibition toward maltase ([2]; maltose substrate): mixed-type inhibition; also recorded: mixed-competitive inhibitors
mode of inhibition of α-glucosidase [3]: mixed-competitive inhibitors
Ki [4]: 14.05 ± 0.03 µM
mode of inhibition toward sucrase [4]: mixed-type inhibition; also recorded: mixed-competitive inhibitors
IC50 [12]: 4800 ± 400 µM
IC50 [13]: 3500 ± 300 µM
IC50 [5]: 19 ± 2.53 µM
sucrase inhibition [5]: 51.7%
inhibition at 10 µM [6]: 56.3%

O=C(O[C@@H]1Cc2c(O)cc(O)cc2O[C@@H]1c1cc(O)c(O)c(O)c1)c1cc(O)c(O)c(O)c1 [epigallocatechin gallate]
mode of inhibition of maltase ([14]; Lineweaver–Burk plot): competitive inhibitor
Ki ([14]; read-out: Ki maltase calculated from a Dixon plot): 5.93 ± 0.26 µM
IC50 [8]: 950 ± 86 µM
IC50 [9]: 14 ± 2 µM

COc1cc(/C=C/C(=O)O)ccc1O [ferulic acid]
mode of inhibition of sucrase [15]: mixed-type manner
mode of inhibition of maltase [16]: mixed-inhibition manner

O=C(O)/C=C/c1ccc(O)c(O)c1 [caffeic acid]
mode of inhibition of maltase [16]: mixed-inhibition manner

Oc1cc(COCc2cc(O)c(O)c(Br)c2Br)c(Br)c(Br)c1O [bis (2,3-dibromo-4,5-dihydroxybenzyl)ether]
IC50 [17]: 1000 ± 30 µM

COc1ccc(/C=C/C(=O)O)cc1O [isoferulic acid]
mode of inhibition of sucrase [15]: mixed-type manner
mode of inhibition of maltase [16]: mixed-inhibition manner
